The results in this text go back to PubChem BioAssay (NCI).

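All cell lines were grown in 96-well plates and treated with compound for 48 hours. The concentration for full growth arrest is given as TGI.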 Bounds are passed on as bounds.

Among the test systems are A549 NSCLC; CCRF-CEM leukemia; HL-60(TB) leukemia; HOP-92 NSCLC; IGROV1 ovarian; MOLT-4 leukemia; NCI-H460 lung; RPMI-8226 leukemia; SF-295 CNS; TK-10 renal.
Holding throughout (experiment): NCI-60 cell line screen, 48 h

For the compound `CC(C)(C)OC(=O)NCC(O)CNC(=O)OC(C)(C)C`, the TGI in the experiment with A549 NSCLC, in the experiment on CCRF-CEM leukemia, in the experiment with HL-60(TB) leukemia, in the experiment with HOP-92 NSCLC, with IGROV1 ovarian and in the experiment with MOLT-4 leukemia was greater than 100 µM in each case. Besides, the TGI in the experiment on NCI-H460 lung, in the experiment with RPMI-8226 leukemia, with SF-295 CNS and in the experiment on TK-10 renal was greater than 100 µM in each case.
Turning to `Cc1cccc(-c2nc3ccc([N+](=O)[O-])cc3c(=O)o2)c1`, the TGI was greater than 100 µM with A549 NSCLC; 96.7 µM with CCRF-CEM leukemia; greater than 100 µM in the experiment on HL-60(TB) leukemia; 93 µM in the experiment on HOP-92 NSCLC; greater than 100 µM with IGROV1 ovarian; greater than 100 µM with MOLT-4 leukemia. In addition, the TGI in the experiment on NCI-H460 lung, with RPMI-8226 leukemia, in the experiment on SF-295 CNS and in the experiment on TK-10 renal was greater than 100 µM in each case.
Consider `CCN(CC)c1c(N(CC)CC)c(=O)c1=O`, for which the TGI came out at 43.7 µM with A549 NSCLC; 18.9 µM with CCRF-CEM leukemia; 7.58 µM in the experiment with HL-60(TB) leukemia; 11.4 µM in the experiment with HOP-92 NSCLC; 8.01 µM in the experiment on IGROV1 ovarian; 16.4 µM in the experiment with MOLT-4 leukemia. Further, the TGI is greater than 78.2 µM in the experiment on NCI-H460 lung, 4.91 µM with RPMI-8226 leukemia, greater than 100 µM in the experiment with SF-295 CNS and 8.7 µM in the experiment on TK-10 renal.
For `C[N+](C)([O-])CCC=C1c2ccccc2CCc2ccccc21`, the TGI is greater than 100 µM in the experiment on A549 NSCLC; 40.7 µM in the experiment on CCRF-CEM leukemia; 30.6 µM in the experiment on HL-60(TB) leukemia; 94.4 µM in the experiment with HOP-92 NSCLC; 33.1 µM with IGROV1 ovarian; 40.7 µM with MOLT-4 leukemia. Moreover, the TGI with NCI-H460 lung was greater than 100 µM; with RPMI-8226 leukemia, 34.5 µM; in the experiment on SF-295 CNS, 70 µM; in the experiment with TK-10 renal, greater than 100 µM.
For `NC(Cc1cccc([N+](=O)[O-])c1)C(=O)O` (stereo unspecified), the TGI in the experiment on A549 NSCLC, in the experiment on CCRF-CEM leukemia, in the experiment with HL-60(TB) leukemia, with HOP-92 NSCLC, in the experiment with IGROV1 ovarian and with MOLT-4 leukemia was greater than 100 µM in each case. For the same compound, the TGI in the experiment with NCI-H460 lung, with RPMI-8226 leukemia, in the experiment on SF-295 CNS and with TK-10 renal was greater than 100 µM throughout.
Turning to `CC(C)(C)c1cc(C(P(=O)(c2ccccc2)c2ccccc2)P(=O)(c2ccccc2)c2ccccc2)cc(C(C)(C)C)c1O`, the TGI was greater than 8.98 µM in the experiment with A549 NSCLC; 7.88 µM with CCRF-CEM leukemia; greater than 8.2 µM in the experiment with HL-60(TB) leukemia; 5.65 µM in the experiment with HOP-92 NSCLC; 5.74 µM in the experiment with IGROV1 ovarian; greater than 8.09 µM with MOLT-4 leukemia. The TGI in the experiment with NCI-H460 lung was 4.44 µM; in the experiment on RPMI-8226 leukemia, greater than 7.73 µM; in the experiment with SF-295 CNS it was 3.85 µM; in the experiment with TK-10 renal, 9.87 µM.
On to `CCc1nc(N)nc(N)c1-c1ccc(Cl)c(Cl)c1`, for which the TGI with A549 NSCLC, in the experiment on CCRF-CEM leukemia, in the experiment with HL-60(TB) leukemia, in the experiment on HOP-92 NSCLC, in the experiment with IGROV1 ovarian and with NCI-H460 lung was greater than 100 µM each time. Also, the TGI with RPMI-8226 leukemia, with SF-295 CNS and in the experiment with TK-10 renal was greater than 100 µM each time.
In the case of `CNC(=S)N(C)C(=S)Nn1c(=O)c(C)nn(C)c1=S`, the TGI with A549 NSCLC, in the experiment with CCRF-CEM leukemia, with HL-60(TB) leukemia, in the experiment with HOP-92 NSCLC, in the experiment on IGROV1 ovarian and with MOLT-4 leukemia was greater than 100 µM each time. Besides, the TGI in the experiment with NCI-H460 lung, in the experiment on RPMI-8226 leukemia and in the experiment with SF-295 CNS was greater than 100 µM each time.
On to `CC(=O)OC1CCC2(C)C3CCC4(C)C(c5ccc(=O)oc5)CC5OC54C3CCC2(O)C1` (stereo unspecified), for which the TGI in the experiment with A549 NSCLC stood at 2.15 µM; in the experiment with CCRF-CEM leukemia, 2.7 µM; with HL-60(TB) leukemia, 1.48 µM; with HOP-92 NSCLC it was 7.59 µM; in the experiment with IGROV1 ovarian it was 21 µM; in the experiment on MOLT-4 leukemia, 0.934 µM. In addition, the TGI in the experiment with NCI-H460 lung worked out at 1.75 µM; in the experiment with RPMI-8226 leukemia, 14.1 µM; in the experiment on SF-295 CNS, 5.63 µM.
Turning to `O=C(OC(=O)n1ccc2ccccc21)n1ccc2ccccc21`, the TGI in the experiment on A549 NSCLC, with CCRF-CEM leukemia, with HL-60(TB) leukemia, in the experiment with HOP-92 NSCLC, in the experiment with IGROV1 ovarian and with MOLT-4 leukemia was greater than 100 µM throughout. In addition, the TGI in the experiment with NCI-H460 lung, in the experiment with RPMI-8226 leukemia and with SF-295 CNS was greater than 100 µM throughout.
Take `Cc1nc2ccccc2c(=O)n1NC(=O)c1ccc(CS)cc1`: the TGI in the experiment with A549 NSCLC is 64.5 µM; in the experiment on CCRF-CEM leukemia it was 3.6 µM; in the experiment on HL-60(TB) leukemia, greater than 100 µM; with HOP-92 NSCLC, 40.8 µM; in the experiment with IGROV1 ovarian it was 27.2 µM; in the experiment with MOLT-4 leukemia it was 12.3 µM. Further, the TGI in the experiment with NCI-H460 lung was 60.4 µM; with RPMI-8226 leukemia, greater than 100 µM; in the experiment with SF-295 CNS, greater than 100 µM.
`CCCCCN=Cc1c(O)c(O)c(C(C)C)c2cc(C)c(-c3c(C)cc4c(C(C)C)c(O)c(O)c(C=NCCCCC)c4c3O)c(O)c12`: the TGI with A549 NSCLC is greater than 100 µM; in the experiment with CCRF-CEM leukemia, greater than 100 µM; in the experiment on HL-60(TB) leukemia, 22.2 µM; in the experiment with HOP-92 NSCLC, 14.6 µM; in the experiment on IGROV1 ovarian it was 87.4 µM; in the experiment with NCI-H460 lung, greater than 100 µM. Besides, the TGI in the experiment on RPMI-8226 leukemia and with TK-10 renal was greater than 100 µM each time.
On to `O=NN(CCCl)C(=O)NC1CCSc2ccccc21` (stereo unspecified), for which the TGI with A549 NSCLC is greater than 100 µM; with CCRF-CEM leukemia it was greater than 100 µM; with HL-60(TB) leukemia it was 48.7 µM; in the experiment with HOP-92 NSCLC it was greater than 100 µM; in the experiment on IGROV1 ovarian, greater than 100 µM; with MOLT-4 leukemia, 99.1 µM. Moreover, the TGI in the experiment on NCI-H460 lung, in the experiment on RPMI-8226 leukemia and with SF-295 CNS was greater than 100 µM throughout.
With `Cc1ccc(S(=O)(=O)Oc2cc(-c3ccccc3)nc3ccccc23)cc1`, the TGI with A549 NSCLC was greater than 78.4 µM; with CCRF-CEM leukemia it was greater than 100 µM; with HL-60(TB) leukemia it was 6.88 µM; in the experiment on HOP-92 NSCLC, 22.9 µM; in the experiment on IGROV1 ovarian it was 22.2 µM; in the experiment on MOLT-4 leukemia it was greater than 100 µM. Moreover, the figures for the TGI with NCI-H460 lung, with RPMI-8226 leukemia and in the experiment on SF-295 CNS were 13.7 µM, 7.71 µM and 13.1 µM, respectively.
